Our source for the GI50 and TGI values is PubChem BioAssay (NCI).

Where “and” joins values, the source holds several entries; their conditions need not be identical. Equal entries are not always repeated.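 Method: 48-hour compound exposure of cells in 96-well plates, five concentrations, linear interpolation of endpoints. GI50 = concentration required for 50% inhibition of growth. TGI denotes the concentration required for complete inhibition of growth.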

Test systems include PC-3 prostate; U251 CNS; NCI/ADR-RES ovarian; M14 melanoma; HOP-92 NSCLC.
What all share (assay): NCI tumour cell line growth inhibition, 48 h

As for `CCN(CC)C(=O)CC1=C(C)/C(=C/c2[nH]c(-c3ccc[nH]3)cc2OC)N=C1C`, the GI50 with PC-3 prostate is 0.35 µM; with U251 CNS, 0.449 µM; with NCI/ADR-RES ovarian it was 0.563 µM; in the test with M14 melanoma, 0.227 µM; in the test with HOP-92 NSCLC, 0.235 µM. Besides, the TGI in the test on PC-3 prostate was determined as 33 µM; in the test with U251 CNS, 15.5 µM; with NCI/ADR-RES ovarian, 14.8 µM; in the test on M14 melanoma, 0.607 µM; in the test with HOP-92 NSCLC, 0.977 µM.

For the compound `CC1=CC[C@@H]2C(C)(C)C(=O)CC[C@@]2(C)[C@@H]1COc1ccc2ccc(=O)oc2c1`, the GI50 was 5.41 µM in the test on PC-3 prostate; 27.6 µM in the test with U251 CNS; 4.06 µM in the test on NCI/ADR-RES ovarian; 12.9 µM in the test with M14 melanoma; 27.4 µM in the test on HOP-92 NSCLC. The TGI in the test with PC-3 prostate was 31.8 µM; in the test on U251 CNS, above 100 µM; with NCI/ADR-RES ovarian it was 19.9 µM; in the test with M14 melanoma, 32.7 µM; with HOP-92 NSCLC it was above 100 µM.

For the compound `CC(C)(C)[Si](C)(C)OCC1CCC(n2cnc3c(=O)[nH]cnc32)O1` (stereo not given), the TGI in the test on PC-3 prostate, in the test on U251 CNS, with NCI/ADR-RES ovarian, in the test on M14 melanoma and in the test on HOP-92 NSCLC was above 100 µM throughout.

For `COc1cccc(C(=O)Nc2ccc(CN3CCc4nc5cc(OC)c(OC)cc5cc43)cc2)c1`, the GI50 in the test on PC-3 prostate was 3.14 µM; in the test on U251 CNS it was 3.17 µM; in the test with NCI/ADR-RES ovarian, 4.48 µM; in the test on M14 melanoma it was 3.76 µM; in the test with HOP-92 NSCLC, 1.92 µM. The TGI was above 100 µM in the test with PC-3 prostate; 12.7 µM with U251 CNS; above 100 µM in the test on NCI/ADR-RES ovarian; 16.4 µM in the test on M14 melanoma; 7.45 µM in the test with HOP-92 NSCLC.

On to `O=C1c2ccccc2NC(c2cc(Cl)cc(Cl)c2O)N1CCc1ccccn1` (stereo not given), for which the TGI in the test on PC-3 prostate, with U251 CNS, in the test with NCI/ADR-RES ovarian, in the test with M14 melanoma and in the test on HOP-92 NSCLC was above 100 µM in each case.

Take `Cc1c(C)c2c(c(C)c1NC(=O)/C=C\C(=O)O)CCC(C)(CCCC(C)CCCC(C)CCCC(C)C)O2` (stereo not given): the GI50 in the test on PC-3 prostate is 1.38 µM; with U251 CNS it was 1.64 µM; in the test on NCI/ADR-RES ovarian, 2.54 µM; in the test on M14 melanoma, 1.37 µM; in the test with HOP-92 NSCLC, 1.1 µM. For the same compound, the TGI in the test on PC-3 prostate is 2.91 µM; in the test with U251 CNS it was 3.18 µM; with NCI/ADR-RES ovarian, 7.46 µM; in the test on M14 melanoma, 2.75 µM; with HOP-92 NSCLC it was 2.35 µM.

Turning to `O=C(/C=C/C12c3ccccc3C(c3ccccc31)C1C(=O)N(c3ccccc3)C(=O)C12)c1ccc(Cl)cc1` (stereo not given), the GI50 is 1.42 µM in the test on PC-3 prostate; 1.84 µM in the test with U251 CNS; 2.16 µM with NCI/ADR-RES ovarian; 2.14 µM with M14 melanoma; 1.33 µM in the test with HOP-92 NSCLC. Further, the TGI in the test on PC-3 prostate was determined as 8.27 µM; in the test with U251 CNS, 4.82 µM; with NCI/ADR-RES ovarian, 8.47 µM; with M14 melanoma, 6.78 µM; in the test with HOP-92 NSCLC, 3.26 µM.

With `CCNC(C)(C)C(SS)c1ccc(Br)cc1` (stereo not given), the TGI in the test with PC-3 prostate, in the test with U251 CNS, in the test with NCI/ADR-RES ovarian, in the test on M14 melanoma and with HOP-92 NSCLC was above 100 µM in each case.

For the compound `N=Nc1c(OC(=O)Nc2ccccc2)[nH]c2ccccc12`, the TGI in the test on PC-3 prostate was 34.4 µM; in the test with U251 CNS, 30.8 µM; in the test on NCI/ADR-RES ovarian it was above 100 µM; in the test with M14 melanoma it was 37.9 µM; with HOP-92 NSCLC, 55.6 µM.

As for `COc1cc(NS(C)(=O)=O)ccc1Nc1c2ccccc2nc2c(C)cccc12`, the GI50 is 0.629 µM and 1.05 µM with PC-3 prostate; 0.106 µM and 0.0963 µM in the test on U251 CNS; 0.992 µM and 1.45 µM in the test with NCI/ADR-RES ovarian; 0.198 µM and 0.129 µM in the test with M14 melanoma; 0.0495 µM and 0.104 µM with HOP-92 NSCLC. Moreover, the TGI is 18.6 µM and 25.5 µM in the test on PC-3 prostate; 1.15 µM and 0.868 µM with U251 CNS; 76.1 µM and 54.9 µM in the test on NCI/ADR-RES ovarian; 13.9 µM and 11.1 µM in the test on M14 melanoma; 1.1 µM and 2.27 µM in the test with HOP-92 NSCLC.

As to `COc1cc(N2CCN(C(C)C)CC2)ccc1Nc1nc(Nc2cccc3ncccc23)c2cc[nH]c2n1`, the GI50 is 8.99 µM in the test with PC-3 prostate; 4.54 µM in the test with U251 CNS; 8.45 µM in the test with NCI/ADR-RES ovarian; 4.13 µM in the test with M14 melanoma; 0.464 µM with HOP-92 NSCLC. In addition, the TGI with PC-3 prostate was above 25 µM; with U251 CNS, 15.1 µM; in the test on NCI/ADR-RES ovarian, above 25 µM; in the test with M14 melanoma, 8.04 µM; in the test with HOP-92 NSCLC, 2.85 µM.

`Cc1csc(/C=N/NC(=O)c2nnn(-c3ccnc4c(C(F)(F)F)cccc34)c2C)c1`: the GI50 in the test on PC-3 prostate was 41.1 µM; in the test on U251 CNS, 22.3 µM; with NCI/ADR-RES ovarian, above 100 µM; with M14 melanoma, above 100 µM; with HOP-92 NSCLC, 55.8 µM. The TGI in the test with PC-3 prostate, with U251 CNS, in the test on NCI/ADR-RES ovarian, with M14 melanoma and with HOP-92 NSCLC was above 100 µM each time.

With `COc1ccc(C[n+]2c3ccccc3n3c4ccc(N)cc4ccc32)c(OC)c1OC`, the GI50 is 1.82 µM in the test with PC-3 prostate; 1.7 µM with U251 CNS; above 100 µM in the test with NCI/ADR-RES ovarian; 14.9 µM in the test on M14 melanoma; 0.571 µM in the test on HOP-92 NSCLC. For the same compound, the TGI is 13.7 µM in the test with PC-3 prostate; 14.5 µM in the test on U251 CNS; above 100 µM in the test on NCI/ADR-RES ovarian; 33.3 µM in the test with M14 melanoma; 3.77 µM in the test on HOP-92 NSCLC.

As for `Oc1c(C(Nc2cccc3ccccc23)c2ccccc2)ccc2cccnc12` (stereo not given), the GI50 in the test with PC-3 prostate is 5.16 µM; with U251 CNS, 2.42 µM; in the test with NCI/ADR-RES ovarian, 2.17 µM; in the test on M14 melanoma, 2.01 µM; with HOP-92 NSCLC it was 2.95 µM. Moreover, the TGI was above 100 µM in the test on PC-3 prostate; 16 µM in the test with U251 CNS; 8.29 µM with NCI/ADR-RES ovarian; 8.48 µM in the test on M14 melanoma; 36.3 µM with HOP-92 NSCLC.

With `CN(Cc1cnc(N)nc1N)c1ccc(C(=O)O)cc1`, the GI50 with PC-3 prostate, with U251 CNS, in the test with NCI/ADR-RES ovarian, with M14 melanoma and in the test with HOP-92 NSCLC was above 100 µM each time. The TGI with PC-3 prostate, with U251 CNS, in the test with NCI/ADR-RES ovarian, in the test on M14 melanoma and in the test on HOP-92 NSCLC was above 100 µM in each case.
